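Where inhibition never reached the appropriate level, the endpoint shown equals the highest concentration tested. Otherwise, values were interpolated linearly from a five-concentration, 48-hour dose response in 96-well plates. The concentration for full growth arrest is given as TGI.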
Columns and labels:
Test in all cases: NCI anticancer screen, dose series, 48 h
786-0 renal = test system: 786-0 renal
A498 renal = test system: A498 renal
A549 NSCLC = test system: A549 NSCLC
ACHN renal = test system: ACHN renal
CAKI-1 renal = test system: CAKI-1 renal
CCRF-CEM leukemia = test system: CCRF-CEM leukemia
COLO 205 colon = test system: COLO 205 colon
DLD-1 colon = test system: DLD-1 colon
DMS 114 small cell lung = test system: DMS 114 small cell lung
DMS 273 small cell lung = test system: DMS 273 small cell lung
EKVX NSCLC = test system: EKVX NSCLC
HCC-2998 colon = test system: HCC-2998 colon
HCT-116 colon = test system: HCT-116 colon
HCT-15 colon = test system: HCT-15 colon
HL-60(TB) leukemia = test system: HL-60(TB) leukemia
HOP-18 NSCLC = test system: HOP-18 NSCLC
HOP-62 NSCLC = test system: HOP-62 NSCLC
HOP-92 NSCLC = test system: HOP-92 NSCLC
HT29 colon = test system: HT29 colon
IGROV1 ovarian = test system: IGROV1 ovarian
K-562 leukemia = test system: K-562 leukemia
KM12 colon = test system: KM12 colon
KM20L2 colon = test system: KM20L2 colon
LOX IMVI melanoma = test system: LOX IMVI melanoma
LXFL 529 NSCLC = test system: LXFL 529 NSCLC
M14 melanoma = test system: M14 melanoma
M19-MEL melanoma = test system: M19-MEL melanoma
MALME-3M melanoma = test system: MALME-3M melanoma
MOLT-4 leukemia = test system: MOLT-4 leukemia
NCI-H226 lung = test system: NCI-H226 lung
NCI-H23 lung = test system: NCI-H23 lung
NCI-H460 lung = test system: NCI-H460 lung
NCI-H522 lung = test system: NCI-H522 lung
OVCAR-3 ovarian = test system: OVCAR-3 ovarian
OVCAR-4 ovarian = test system: OVCAR-4 ovarian
OVCAR-5 ovarian = test system: OVCAR-5 ovarian
OVCAR-8 ovarian = test system: OVCAR-8 ovarian
RPMI-8226 leukemia = test system: RPMI-8226 leukemia
RXF 393 renal = test system: RXF 393 renal
SF-268 CNS = test system: SF-268 CNS
SF-295 CNS = test system: SF-295 CNS
SF-539 CNS = test system: SF-539 CNS
SK-MEL-2 melanoma = test system: SK-MEL-2 melanoma
SK-MEL-28 melanoma = test system: SK-MEL-28 melanoma
SK-MEL-5 melanoma = test system: SK-MEL-5 melanoma
SK-OV-3 ovarian = test system: SK-OV-3 ovarian
SN12C renal = test system: SN12C renal
SNB-19 CNS = test system: SNB-19 CNS
SNB-75 CNS = test system: SNB-75 CNS
SNB-78 CNS = test system: SNB-78 CNS
SR leukemia = test system: SR leukemia
SW-620 colon = test system: SW-620 colon
TK-10 renal = test system: TK-10 renal
U251 CNS = test system: U251 CNS
UACC-257 melanoma = test system: UACC-257 melanoma
UACC-62 melanoma = test system: UACC-62 melanoma
UO-31 renal = test system: UO-31 renal
XF 498 CNS = test system: XF 498 CNS

Measured: TGI

C[C@]12CCC[C@H](Cl)C1(O)C[C@H](C(=O)O)CC2 (stereo partly drawn)
> 100 µM: all assays above

From PubChem BioAssay (NCI)
